The numbers were not newly measured in paper PMC9825171 (Nucleic Acids Research, 2022), which cites them from elsewhere.

The series relates to interactions of both NICD and SHARP with RBPJ. As to conditions: cellular assays; ref [63].

For `Cn1nccc1-c1ccc(C(N)=O)c(Oc2ccccc2F)c1` [RIN1], the “effect on RBPJ-coregulator interactions, in words” value is “block the interactions of both NICD and SHARP with RBPJ”.
